Earlier results, collected in patent publication US5140036A, “1,3,5-trisubstituted-1,2,4-triazole compounds for treatment of circulatory disorders” (priority 1990, dated 1992).

Legend:
[1] = test system: angiotensin II; details: series of binding experiments, functional assays and in vivo tests
[2] = test system: angiotensin II at its receptors; details: commercially-available peptidic angiotensin II antagonists

CCCCc1nc(Cl)c(CC(=O)O)n1Cc1ccccc1[N+](=O)[O-] [2-butyl-4-chloro-1-(2-nitrobenzyl)imidazole-5-acetic acid]
angiotensin II antagonist activity [1]: specific competitive angiotensin II antagonist activity

CNCC(=O)N[C@@H](CCCN=C(N)N)C(=O)N[C@H](C(=O)N[C@@H](Cc1ccc(O)cc1)C(=O)N[C@H](C(=O)N[C@@H](Cc1cnc[nH]1)C(=O)N1CCC[C@H]1C(=O)N[C@@H](C)C(=O)O)C(C)C)C(C)C [Saralasin]
residual agonist activity [2]: significant residual agonist activity

CCCCc1nc(Cl)c(CC(=O)O)n1Cc1ccccc1Cl [2-n-butyl-4-chloro-1-(2-chlorobenzyl)imidazole-5-acetic acid]
angiotensin II antagonist activity [1]: specific competitive angiotensin II antagonist activity
